Source: paper PMC11429909, “Protein Structure Inspired Discovery of a Novel Inducer of Anoikis in Human Melanoma” (Cancers, 2024)

Columns and labels:
[1] = tested on: human cord blood CD34+ cells; test: Bone marrow stem cell (hematopoietic trilineage) colony formation assay; type: cell-based; details: for Mean Number of Colonies, % of Control, 14 days / Mean Number of Colonies, % of Control, 8 days: normal bone marrow, compound at 40 µM, N = 2; for Mean Number of Colonies, % of Control, 8 days: total colonies at 8 days
Experimental: (§1) Human hematopoietic stem cell trilineage colony formation assays were performed as previously described by us. Briefly, human cord blood CD34+ cells (catalog #: 70008.5) were purchased from StemCell Technology Inc. and seeded at 1 × 10^4 cells per 35 mm dish. Cells were cultured in MethoCult™ Express (StemCell Technologies, Inc. (Vancouver, BC, Canada)) semisolid media, per the manufacturer’s instructions, in the presence of compound or vehicle (for controls). Compounds were added at final concentrations matching those used in the initial growth assay screens. At eight days, colonies (i.e., groups of ≥10 cells) were counted. At fourteen days, individual colonies of erythroid burst-forming units (BFU-E), colony-forming unit granulocyte–macrophage (CFU-GM), and colony-forming unit granulocyte, erythrocyte, monocyte, and megakaryocyte (CFU-GEMM) were identified based on the manufacturers’ morphologic characterization criteria. Assays were run in replicates of N = 2, and some were run in replicates of N = 4, as denoted. The mean number of colonies was then determined and expressed as the percentage of controls. The effect of each compound on inhibiting the growth of cancer cells relative to its toxic effects on normal bone marrow was evaluated. This was carried out by comparing colonies at 8 days for each cancer cell line to that of bone marrow. This information was used to calculate the efficacy ratio, as follows: efficacy ratio = (percent of remaining cancer cell colonies)/(percent of remaining bone marrow colonies). This was performed for all compounds at 40 µM and for selected compounds at 5.7 µM, as denoted. For compounds nominated for second-level screens, bone marrow colony formation assays were also repeated. Compounds were added at final concentrations matching those used in the initial screens.
In parallel with measuring growth inhibition of cancer cell growth, we measured the effect on human hematopoietic stem cells. Hematopoietic stem cells reside in the bone marrow and are the source of mature cells present in blood. Bone marrow is one of the most sensitive organs in the body to drug toxicity, and this is especially so for anticancer drugs, where bone marrow toxicity can approach 100% [78, 79, 80]. Bone marrow toxicity was measured by performing hematopoietic colony formation assays on human CD34+ stem cells. The stem cell nature of this assay permitted the assessment of trilineage colony formation: granulocytic (white blood cells), erythrocytic (red blood cells), and megakaryocytic (platelets), measured by the formation of CFU-GM, BFU-E, and CFU-GEMM colonies, respectively. Two measurements were taken. First, total colonies at eight days were measured, thereby matching the eight-day timeframe of cancer cell colony formation assays. Second, at fourteen days, individual colonies had differentiated, permitting quantification of each lineage.

[2] = tested on: breast, prostate, colon, or lung cancer cell lines; test: Eight-day colony formation assays, summary across the cancer cell line panel; type: cell-based, human; details: for efficacy at concentrations below 40 µM (in words): 8-day colony formation
Experimental: Initial colony formation screening assays were conducted on all acquired compounds and examined at five different compound concentrations. Those meeting efficacy criteria underwent a second-level screen examining nine different compound concentrations. Eight-day colony formation assays of cancer cells were performed as described by us. Briefly, 0.5–1.0 × 10^3 cells were seeded into each well of a 12-well plate. Twenty-four hours later, the compound was added at the following final concentrations: 0 (DMSO-only control), 0.017, 0.12, 0.82, 5.7, and 40 µM. For each concentration, there were N = 2 replicates, i.e., 2 wells. Eight days later, plates were stained with trypan blue, visualized under light microscopy, and groups of three or more cells were scored as colonies. The mean number of colonies was then determined and expressed as the percentage of controls. Second-level screens were performed on compounds inhibiting colony formation by greater than 50% at 40 µM in at least two cell lines. Second-level assays used the following final concentrations of compound: 0 (DMSO only), 0.0061, 0.018, 0.05, 0.16, 0.49, 1.48, 4.44, 13.33, and 40 µM. All compounds were stored under desiccated conditions in a sealed container at minus 20 °C upon arrival. One day prior to use, they were dissolved in DMSO, stored at minus 20 °C as stock solutions, thawed just prior to use, and not reused.
as §1
We sought to identify compounds that would inhibit the growth of cancer cells, but that also did so selectively. Inhibition of cancer cell growth is a highly sought after attribute of anticancer agents. This was assessed by measuring the ability of a compound to inhibit cell growth in eight-day colony formation assays and examining concentrations ranging from 0.017 to 40 µM. Breast, colon, lung, and prostate cancer are four of the most common types of cancer in the United States, are major causes of cancer cell death, and were examined. […]

NCI-60 cell lines = test: NCI-60 cell line screen; type: cell-based, human; details: 48 h at 10 µM
Experimental: The above findings support the importance of Dxr2 and FolC2 sites, and of Dxr2-017 and FolC2-001 compounds, respectively. The NCI-60 cell line screen evaluates compound growth inhibition and cell toxicity in a highly standardized manner across 60 different cell lines. Dxr2-017 and FolC2-001 were evaluated in this assay (Figure S6). NCI-60 screens evaluate cells treated for 48 h at 10 µM with a given compound. […] Of high interest, in the NCI-60 screen, Dxr2-017 had relatively high activity against melanoma cell lines, inducing cell death in five cell lines ranging from 25% to 65%, and inhibiting growth in four cell lines ranging from 76% to 96%. Its impact on cell death represented the most striking relative difference in response across cell lines.

HT29 = test: Eight-day colony formation assay, colon cancer HT29; type: cell-based, human; details: 0.82 µM
Experimental: Initial colony formation screening assays were conducted on all acquired compounds and examined at five different compound concentrations. Those meeting efficacy criteria underwent a second-level screen examining nine different compound concentrations. Eight-day colony formation assays of cancer cells were performed as described by us. Briefly, 0.5–1.0 × 10^3 cells were seeded into each well of a 12-well plate. Twenty-four hours later, the compound was added at the following final concentrations: 0 (DMSO-only control), 0.017, 0.12, 0.82, 5.7, and 40 µM. For each concentration, there were N = 2 replicates, i.e., 2 wells. Eight days later, plates were stained with trypan blue, visualized under light microscopy, and groups of three or more cells were scored as colonies. The mean number of colonies was then determined and expressed as the percentage of controls. […]
In addition to screens, eight-day colony formation assays were conducted for certain experiments, as denoted. […] The IC50 values were calculated using nonlinear regression analysis. […] The IC50 values were determined using the dose–response inhibition function. […]
Human hematopoietic stem cell trilineage colony formation assays were performed as previously described by us. […] At eight days, colonies (i.e., groups of ≥10 cells) were counted. […] The mean number of colonies was then determined and expressed as the percentage of controls. […]

Row | SMILES | Mean Number of Colonies, % of Control, 14 days [1] | Mean Number of Colonies, % of Control, 8 days [1] | also measured
1 | O=C(Cn1c(=O)oc2ccccc21)N1CCn2c1nc1ccccc12 [FolC2-001] | 87 % of Control | 108 % of Control | efficacy ratio, mean ± SEM over cell lines with ratio below 0.5 ([2]; 40 µM, 8 days): 0.29 ± 0.09; number of cell lines with efficacy ratio below 0.5 ([2]; 40 µM, 8 days): five; efficacy at concentrations below 40 µM (in words) [2]: rapidly dropped off below 40 µM; activity in the NCI-60 screen (in words) (NCI-60 cell lines): against H226
2 | O=C(COC(=O)c1cccs1)c1ccc2[nH]c(=O)[nH]c2c1 [TYLT-003] | 94 % of Control | 97 % of Control | 
3 | O=c1[nH]cc(F)c(=O)[nH]1 [Compound 5FU, 5-fluorouracil, reference compound] |  |  | effect on bone marrow colony formation (in words) ([1]; 0.82 µM): no effect on bone marrow; effect on bone marrow colony formation (in words) ([1]; 5.7 µM): profound suppressive effects; hematopoietic colony formation, % of the control ([1]; 5.7 µM, 8 days): 38 % of the control; effect on bone marrow colony formation (in words) ([1]; 40 µM): completely suppressed colony formation; efficacy ratio (cancer cell colonies / bone marrow colonies, 8 days) (HT29): 0.82
4 | Cc1[nH]c(=O)[nH]c1C(=O)CCCCC(=O)O [EPSP-023] | 114 % of Control | 94 % of Control | 
5 | O=C(CCc1c[nH]c2ccccc12)N1CCSc2ccccc21 [FolC2-005] | 101 % of Control | 105 % of Control | efficacy at concentrations below 40 µM (in words) [2]: A similar phenomenon was observed
6 | O=C(Cc1n[nH]c(=O)c2ccccc12)Nn1cnc2ccccc21 [TYLT-001] | 103 % of Control | 117 % of Control | 
7 | c1ccc(CCc2n[nH]c(-c3ccccn3)n2)cc1 [FolC1-031] | 85 % of Control | 80 % of Control | 
8 | O=C(Nc1nnn[nH]1)c1cc(-c2ccccc2)nc2ccccc12 [PRT-051] | 119 % of Control | 93 % of Control | 
9 | Cc1nnsc1C(=O)OCCCn1c(=O)[nH]c2ccccc21 [Dxr2-001] | 93 % of Control | 109 % of Control | 
